Data on nine compounds can be found in patent US20080219962A1, “Method to Enhance the Bone Formation Activity of Bmp by Runx2 Acetylation” (BIORUNX CO., LTD., priority 2005, published 2008).

Numbered stars: 1 amine (or outer) side, 2 acyl side, 3 side chain; on linkers, the order of the positions; unused ones are H or OH. Bridge positions count the residues as written; N and C are the ends. Square brackets hold non-standard residues; d marks the D form. Peptide text beside a SMILES is read from it. I, II: the chains in the order shown. ξ: configuration not given here. hNle(7-SH) = O=C([C@H](CCCCCS[*:3])N[*:1])[*:2]; Ile(3ξ) = CCC(C)[C@H](N)C(=O)O

One assay has as its system Runx2. The assay is described as follows: Runx2 acetylation: immunoprecipitation with anti-acetyl-lysine antibody, Western blot with anti-myc antibody. It is filed as cell-based. To be noted: C2C12 cells transfected with myc-tagged Runx2, treated with HDAC inhibitor; FIG. 13. How it is done:
Following transfection, the C2C12 and 293 cells were lysed in ice-cold cell lysis buffer (25 mM HEPES (pH 7.5), 150 mM NaCl, 1% NP-40, 0.25% Na deoxycholate, 10% glycerol, 25 mM NaF, 1 mM EDTA, 1 mM Na3VO4, 250 μM phenylmethylsulfonyl fluoride, 10 μg/ml leupeptin, 10 μg/ml aprotinin) and cleared by centrifugation. The resulting supernatants were immunoprecipitated with the appropriate primary and secondary antibodies, and protein A- or protein G-Sepharose beads (Amersham) for 4 hours. All incubations were conducted at 4° C. The Sepharose beads were washed extensively and bound proteins were separated using SDS-PAGE, and then transferred to PVDF membranes. The membranes were incubated with the appropriate antibodies, washed, and then incubated with horseradish peroxidase-coupled secondary antibodies. After washing, the reactive proteins were visualized with an enhanced chemiluminescence (ECL) reagent (Amersham Biosciences).
For HDAC inhibitor treatments, both C2C12 and 293 cells were cultured in fresh medium for 1 day following transfection, and then treated with the inhibitors (Tricostatin A (TSA), CHAP and SCOP) for 16 h, at the specified concentrations according to the methods of Komatsu et al (Cancer Res. 61:4459-4466, 2001) and Nishino et al (Nishino N. et al., Org. Lett. 5: 5079-5082, 2003).
The level of Runx2 acetylation might be controlled by a dynamic equilibrium between acetylation and deacetylation. […] In the present invention, inhibitors of histone diacetylase (HDAC) deacetylating most proteins were treated to Runx2. Particularly, C2C12 cells, transfected with myc-tagged Runx2, were treated with HDAC inhibitors such as SCOP304, SCOP152, CHAP27, SAHA, MS-275, FK228, TrafoxinB and Oxamflatin according to the method of Komatsu et al (Cancer Res. 61:4459-4466, 2001). Immunoprecipitation was performed using anti-acetyl-lysine antibody, followed by Western blot analysis using anti-myc antibody.
A general note: Immunoblotting shows a protein as a band on a membrane.

The test system of assay [1] is C2C12 pluripotent mesenchymal precursor cells. The assay is described as follows: Alkaline phosphatase (ALP) activity staining, early marker of osteoblast differentiation. The conditions noted are these: increasing inhibitor concentration in presence of low concentration of BMP-2 (30 ng/ml), FIG. 18. It is filed as cell-based. Here is the method:
Particularly, C2C12 pluripotent mesenchymal precursor cells were treated with each HDAC inhibitor and then fixed with 3.7% formaldehyde for 10 minutes, to which western blue substrate (Promega) was added to induce color development for 10 minutes. And alkaline phosphatase (ALP) activity, an early marker of osteoblast differentiation was measured by the active staining method (Katagiri et al., J. Cell Biol. Vol. 127, 1755-66, 1994). As a result, the treatment of HDAC inhibitors such as TSA, SAHA, MS-275, FK228, Oxamflatin, CHAP27, SCOP152, SCOP304 and SCOP402 caused increase of ALP activity (FIG. 18).

Assay [2] relates to Runx2 transcriptional activity. Nature of the assay: pGL3-TβRE-luc luciferase reporter assay in 293 cells over-expressing Runx2. Format: cell-based. The conditions noted are these: 293 cells over-expressing Runx2 and pGL3-TβRE-luc reporter; FIG. 16. Here is the method: For luciferase assay, cells were plated on a 24-well plate one day before transfection, followed by co-transfection with luciferase reporter plasmid and numbers of Runx2 constructs. 36 hours after transfection, cells were recovered and luciferase and β-galactosidase activities were measured in cell lysate by using Luciferase Reporter Assay Kit (Promega) using luminometer according to the manufacturer's recommendations. The pCMVβ-Gal (beta-Galactosidase, Clontech Laboratory) plasmid was included as an internal control to determine the efficiency of transfection.
To examine whether HDAC inhibitors, increasing the level of Runx2 acetylation, could promote the Runx2 transcriptional activity, 293 cells over-expressing Runx2 and pGL3-TβRE-luc reporter were treated with each HDAC inhibitor. The transcriptional activity of Runx2 was evaluated by luciferase report assay, which was performed according to the manufacturer (Promega)'s instructions. As a result, HDAC inhibitors, Tubacin, SAHA, MS-275, Trafoxin B, Oxamflatin, CHAP27, CHAP31, SCOP152, SCOP304 and SCOP402, increased transcriptional activity of Runx2 (FIG. 16). From the result, it was confirmed that HDAC inhibitors not only increase the level of Runx2 acetylation but also increase the Runx2 transcriptional activity.
(Reporter assays use an easily measured gene product as a stand-in for the process of interest.)

Another assay relates to OC promoter. The assay is described as follows: Osteocalcin (OC) promoter luciferase reporter assay in H1-127-21-2 cells. It is filed as cell-based, mouse. To be noted: H1-127-21-2 cells over-expressing pCS4-3Myc-Runx and pGL2-1050 OC-luc; FIG. 19. From the text: Full-length Runx2 (SEQ. ID. No 2) labeled with Myc or HA was inserted into a vector to construct CMV promoter-derived mammalian expression vectors pCS4-3Myc and pCS4-3HA (Jin et al., J Biol Chem. Vol. 279, 29409-17, 2004, Ogawa et al., Proc Natl Acad Sci USA. 1993 Vol. 90, 6859-63.). Mutations affecting the Runx2 acetylation site were introduced by PCR (Michaels A. Innis et al., PCR protocols: a guide to method and applications, Qcademic Press, Inc., 1990) and cloned into the pCS4-3Myc vector. The BMP receptor 1 (BMPR1) and HA-p300 expression vectors were obtained from M. Ewen (Dana-Farber Cancer Institute, Harvard Medical School, Boston) (Genes Dev. Vol. 8, 869-84, 1994). The expression plasmids for the myc-HDAC series were cloned into pCS4-3Myc. The luciferase reporter plasmid, pGL3-TbRE, contains two copies of TbRE (originally identified in the immunoglobulin Cα promoter) (Lee, K. S., et al., Mol. Cell. Biol. 20:8783-8792, 2000; pGL3 is product of Promega). […]
For luciferase assay, cells were plated on a 24-well plate one day before transfection, followed by co-transfection with luciferase reporter plasmid and numbers of Runx2 constructs. 36 hours after transfection, cells were recovered and luciferase and β-galactosidase activities were measured in cell lysate by using Luciferase Reporter Assay Kit (Promega) using luminometer according to the manufacturer's recommendations. […]

Assay [3] concerns periosteal bone formation. Nature of the assay: Periosteal bone formation after hypodermic injection into mice calvarias, H&E histostaining. It is filed as in vivo. The conditions noted are these: 10 μl of 60 μM injected hypodermically into calvarias, two weeks, FIG. 22. Here is the method: To confirm the effect of HDAC inhibitors on bone formation, the present inventors investigated the effect of CHAP27, SCOP402 and SCOP304 on periosteal bone formation in rodent. Particularly, 10 μl of HDAC inhibitors (60 μM) were hypodermically injected into mice calvarias (Zhao et al., J. Biol. Chem., 279, 12854-12859, 2004). Two weeks later, the mice were sacrificed, followed by hematoxyline & eosine histostaining (Cell Biology. Second edition, Edited by Julio E. Celis. Published by Academic Press, 1994).

As for `Nc1ccccc1NC(=O)c1ccc(CNC(=O)OCc2cccnc2)cc1` [MS-275, carbamate, [[4-[[(2-aminophenyl)amino]carbonyl]phenyl]methyl]-, 3-pyridinemethyl ester], the Runx2 acetylation result with Runx2 was “increased”. The ALP activity result in assay [1] was “increase”. Also, the “transcriptional activity of Runx2 (luciferase reporter)” value (from here on “transcriptional activity of Runx2”) in assay [2] was “increased”.
Consider `CC(/C=C/C(=O)NO)=C\[C@@H](C)C(=O)c1ccc(N(C)C)cc1` [TSA, 2,4-heptadieneamide, 7-[4-(dimethylamino)phenyl]-N-hydroxy-4,6-dimethyl-7-oxo-, (2E,4E,6R)-], for which, in assay [1], the ALP activity entry was “increase”.
Turning to `O=C(CCCCCCC(=O)Nc1ccccc1)NO` [SAHA, octanediamide, N-hydroxy-N′-phenyl-], the Runx2 acetylation result in the assay on Runx2 is on record as “increased”. Also, the ALP activity entry in assay [1] was “increase”. Besides, the “transcriptional activity of Runx2” value in assay [2] is “increased”.
With Oxamflatin, the Runx2 acetylation result in the assay with Runx2 was “increased”. In assay [1], the ALP activity result is listed as “increase”. Moreover, the “transcriptional activity of Runx2” value in assay [2] is reported as “increased”.
For the compound “cyclo(-L-Am7-D-Tyr(Me)-L-Ile-D-Pro-) [SCOP152]”, in the assay on Runx2, the Runx2 acetylation entry is on record as “increased”. In addition, the ALP activity result in assay [1] is “increase”. Besides, the “transcriptional activity of Runx2” value in assay [2] was “increased”.
Consider “cyclo(-L-Asu(NHOH)-D-Tyr(Me)-L-Ile-D-Pro-) [CHAP31]”, for which the “transcriptional activity of Runx2” value in assay [2] was “increased”.
Same read-out and setting: in the case of `O=C(CCCCCCC(=O)Nc1ccc([C@H]2O[C@@H](CSc3nc(-c4ccccc4)c(-c4ccccc4)o3)C[C@@H](c3ccc(CO)cc3)O2)cc1)NO` [Tubacin] it was “increased”.
For `CCC(C)[C@@H]1NC(=O)[C@H]2CCCN2C(=O)[C@H](CCCCCSSCCCCC[C@@H]2NC(=O)[C@H]3CCCN3C(=O)[C@H](C(C)CC)NC(=O)[C@@H](Cc3ccc(OC)cc3)NC2=O)NC(=O)[C@@H](Cc2ccc(OC)cc2)NC1=O` (stereo partly drawn) [SCOP304, cyclo(L-Am7 (−)-D-Tyr(Me)-L-Ile-D-Pro)dimer] (I: cyclo([Ile(3ξ)][dP][hNle(7-SH)][dY](Me)) / II: cyclo([Ile(3ξ)][dY](Me)[hNle(7-SH)][dP]); disulfide I:3-II:3), in the assay with OC promoter, the “OC promoter activation over the activation observed for Runx2 alone” value was 2-4 fold. Also, the Runx2 acetylation result with Runx2 is listed as “increased”. The ALP activity entry in assay [1] is “increase”. Also, the bone formation entry in assay [3] is “remarkably enhanced”. Further, the “transcriptional activity of Runx2” value in assay [2] is recorded as “increased”.
Regarding `C/C=C1\NC(=O)[C@H]2CSSCC/C=C/[C@H](CC(=O)N[C@H](C(C)C)C(=O)N2)OC(=O)[C@H](C(C)C)NC1=O` [FK228], the Runx2 acetylation result in the assay on Runx2 is “increased”. For the same compound, the ALP activity result in assay [1] is given as “increase”.
